{
  "source": "patent US6914045B2",
  "about": "“Glycopeptide antibiotics” (Wyeth Holdings Corporation, priority 2001, dated 2005)",
  "test_in_all_cases": "in vitro antibacterial evaluation, MIC by broth dilution",
  "assay_type_in_all_cases": "cell-based",
  "key": {"Enterococcus sp.": {"tested_on": "Enterococcus sp.", "conditions": "broth dilution, 18 hours at 35° C.", "procedure": "(§1) Methods for in vitro Antibacterial Evaluation (Table 1)\n(§2) The minimum inhibitory concentration (MIC), the lowest concentration of the antibiotic which inhibits growth of the test organism, is determined by the broth dilution method using Muller-Hinton II […] (Baltimore Biological Laboratories) following the recommendations of the National Committee for Clinical Laboratory Standards [Methods for dilution antimicrobial susceptibility tests for bacteria that grow aerobically, approved standard M7-A2, National Committee for Clinical Laboratory Standards, Villanova, Pa.].\n(§3) An inoculum level of 5×10^5 CFU/mL, and a range of antibiotic concentrations (64-0.06 μg/mL) is used. […] The test organisms include a spectrum of Gram-positive bacteria comprised of Staphylococcus sp., Streptococcus sp. and Enterococcus sp. These organisms include recent clinical isolates that are resistant to methicillin, penicillin and/or vancomycin."}, "Staphylococcus sp.": {"tested_on": "Staphylococcus sp.", "conditions": "broth dilution, 18 hours at 35° C.", "procedure": "as §1, §2, §3"}, "Streptococcus sp.": {"tested_on": "Streptococcus sp.", "conditions": "broth dilution, 18 hours at 35° C.", "procedure": "as §1, §2, §3"}, "Escherichia coli": {"tested_on": "Escherichia coli", "conditions": "18 hours at 35° C.", "in_short": "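Broth dilution MIC per NCCLS M7-A2 in Mueller-Hinton II medium, inoculum 5×10^5 CFU/mL, antibiotic range 64-0.06 μg/mL. MIC taken as lowest concentration inhibiting growth.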"}},
  "data": [
    {"compound": "CCCCCCN=C1NCC(C(O)C2NC(=O)C(C(O)C3CNC(=N)N3)NC(=O)C(Cc3ccc(OC4OC(CO)C(OC5OC6COC7(OC6C(O)C5O)C5CC6CC(C5)CC7C6)C(O)C4O)cc3)NC(=O)C(C(C)c3ccccc3)NC(=O)CNC(=O)C(CO)NC2=O)N1C1OC(CO)C(O)C(O)C1O", "note": "(centres unmarked) [Example 84]", "values": [
      {"measurement": "MIC Enterococcus avium (GC 4558)", "setting": "Enterococcus sp.; Enterococcus avium (GC 4558)", "result": 8, "unit": "µg/mL"},
      {"measurement": "MIC Enterococcus faecalis (ATCC 29212)", "setting": "Enterococcus sp.; Enterococcus faecalis (ATCC 29212)", "result": 8, "unit": "µg/mL"},
      {"measurement": "MIC Enterococcus faecalis (GC 4552)", "setting": "Enterococcus sp.; Enterococcus faecalis (GC 4552)", "result": 8, "unit": "µg/mL"},
      {"measurement": "MIC Enterococcus faecalis (GC 4553)", "setting": "Enterococcus sp.; Enterococcus faecalis (GC 4553)", "result": 8, "unit": "µg/mL"},
      {"measurement": "MIC Enterococcus faecalis (GC 4554)", "setting": "Enterococcus sp.; Enterococcus faecalis (GC 4554)", "result": 16, "unit": "µg/mL"},
      {"measurement": "MIC Enterococcus faecalis (GC 6189)", "setting": "Enterococcus sp.; Enterococcus faecalis (GC 6189)", "result": 8, "unit": "µg/mL"},
      {"measurement": "MIC Enterococcus faecium (GC 2243)", "setting": "Enterococcus sp.; Enterococcus faecium (GC 2243)", "result": 4, "unit": "µg/mL"},
      {"measurement": "MIC Enterococcus faecium (GC 4556)", "setting": "Enterococcus sp.; Enterococcus faecium (GC 4556)", "result": 8, "unit": "µg/mL"},
      {"measurement": "MIC Enterococcus faecium (GC 4557)", "setting": "Enterococcus sp.; Enterococcus faecium (GC 4557)", "result": 1, "unit": "µg/mL"},
      {"measurement": "MIC Enterococcus avium (GC 4558)", "setting": "Enterococcus sp.", "result": 8, "unit": "µg/mL"},
      {"measurement": "MIC Enterococcus faecalis (ATCC 29212)", "setting": "Enterococcus sp.", "result": 8, "unit": "µg/mL"},
      {"measurement": "MIC Enterococcus faecalis (GC 2242)", "setting": "Enterococcus sp.", "result": 8, "unit": "µg/mL"},
      {"measurement": "MIC Enterococcus faecalis (GC 2691)", "setting": "Enterococcus sp.", "result": 8, "unit": "µg/mL"},
      {"measurement": "MIC Enterococcus faecalis (GC 3059)", "setting": "Enterococcus sp.", "result": 8, "unit": "µg/mL"},
      {"measurement": "MIC Enterococcus faecalis (GC 4552)", "setting": "Enterococcus sp.", "result": 8, "unit": "µg/mL"},
      {"measurement": "MIC Enterococcus faecalis (GC 4553)", "setting": "Enterococcus sp.", "result": 8, "unit": "µg/mL"},
      {"measurement": "MIC Enterococcus faecalis (GC 4554)", "setting": "Enterococcus sp.", "result": 16, "unit": "µg/mL"},
      {"measurement": "MIC Enterococcus faecalis (GC 6189)", "setting": "Enterococcus sp.", "result": 8, "unit": "µg/mL"},
      {"measurement": "MIC Enterococcus faecium (GC 2243)", "setting": "Enterococcus sp.", "result": 4, "unit": "µg/mL"},
      {"measurement": "MIC Enterococcus faecium (GC 4556)", "setting": "Enterococcus sp.", "result": 8, "unit": "µg/mL"},
      {"measurement": "MIC Enterococcus faecium (GC 4557)", "setting": "Enterococcus sp.", "result": 1, "unit": "µg/mL"},
      {"measurement": "MIC Enterococcus faecalis (GC 2242)", "setting": "Enterococcus sp.; strain GC 2242", "result": 8, "unit": "µg/mL"},
      {"measurement": "MIC Enterococcus faecalis (GC 2691)", "setting": "Enterococcus sp.; strain GC 2691", "result": 8, "unit": "µg/mL"},
      {"measurement": "MIC Enterococcus faecalis (GC 3059)", "setting": "Enterococcus sp.; strain GC 3059", "result": 8, "unit": "µg/mL"},
      {"measurement": "MIC Coagulase Negative Staphylococcus (GC 4547)", "setting": "Staphylococcus sp.", "result": 4, "unit": "µg/mL"},
      {"measurement": "MIC Coagulase Negative Staphylococcus (GC 4548)", "setting": "Staphylococcus sp.", "result": 4, "unit": "µg/mL"},
      {"measurement": "MIC Coagulase Negative Staphylococcus (GC 4549)", "setting": "Staphylococcus sp.", "result": 4, "unit": "µg/mL"},
      {"measurement": "MIC Coagulase Negative Staphylococcus (GC 4551)", "setting": "Staphylococcus sp.", "result": 4, "unit": "µg/mL"},
      {"measurement": "MIC Coagulase Negative Staphylococcus (GC 6257)", "setting": "Staphylococcus sp.", "result": 2, "unit": "µg/mL"},
      {"measurement": "MIC Staphylococcus aureus-SMITH (GC 4543)", "setting": "Staphylococcus sp.", "result": 4, "unit": "µg/mL"},
      {"measurement": "MIC Staphylococcus haemolyticus (GC 4546)", "setting": "Staphylococcus sp.", "result": 4, "unit": "µg/mL"},
      {"measurement": "MIC Staphylococcus aureus (ATCC 29213)", "setting": "Staphylococcus sp.; strain ATCC 29213", "result": 8, "unit": "µg/mL"},
      {"measurement": "MIC Staphylococcus aureus (GC 1131)", "setting": "Staphylococcus sp.; strain GC 1131", "result": 8, "unit": "µg/mL"},
      {"measurement": "MIC Staphylococcus aureus (GC 3051)", "setting": "Staphylococcus sp.; strain GC 3051", "result": 8, "unit": "µg/mL"},
      {"measurement": "MIC Staphylococcus aureus (GC 3053)", "setting": "Staphylococcus sp.; strain GC 3053", "result": 8, "unit": "µg/mL"},
      {"measurement": "MIC Staphylococcus aureus (GC 4541)", "setting": "Staphylococcus sp.; strain GC 4541", "result": 4, "unit": "µg/mL"},
      {"measurement": "MIC Staphylococcus aureus (GC 4542)", "setting": "Staphylococcus sp.; strain GC 4542", "result": 8, "unit": "µg/mL"},
      {"measurement": "MIC Staphylococcus aureus-SMITH (GC 4543)", "setting": "Staphylococcus sp.; strain GC 4543", "result": 4, "unit": "µg/mL"},
      {"measurement": "MIC Staphylococcus aureus (GC 4544)", "setting": "Staphylococcus sp.; strain GC 4544", "result": 8, "unit": "µg/mL"},
      {"measurement": "MIC Staphylococcus aureus (GC 4545)", "setting": "Staphylococcus sp.; strain GC 4545", "result": 8, "unit": "µg/mL"},
      {"measurement": "MIC Staphylococcus haemolyticus (GC 4546)", "setting": "Staphylococcus sp.; strain GC 4546", "result": 4, "unit": "µg/mL"},
      {"measurement": "MIC Coagulase Negative Staphylococcus (GC 4547)", "setting": "Staphylococcus sp.; strain GC 4547", "result": 4, "unit": "µg/mL"},
      {"measurement": "MIC Coagulase Negative Staphylococcus (GC 4548)", "setting": "Staphylococcus sp.; strain GC 4548", "result": 4, "unit": "µg/mL"},
      {"measurement": "MIC Coagulase Negative Staphylococcus (GC 4549)", "setting": "Staphylococcus sp.; strain GC 4549", "result": 4, "unit": "µg/mL"},
      {"measurement": "MIC Coagulase Negative Staphylococcus (GC 4551)", "setting": "Staphylococcus sp.; strain GC 4551", "result": 4, "unit": "µg/mL"},
      {"measurement": "MIC Coagulase Negative Staphylococcus (GC 6257)", "setting": "Staphylococcus sp.; strain GC 6257", "result": 2, "unit": "µg/mL"},
      {"measurement": "MIC Streptococcus agalactiae (GC 4564)", "setting": "Streptococcus sp.", "result": 1, "unit": "µg/mL"},
      {"measurement": "MIC Streptococcus pneumoniae (ATCC 6301)", "setting": "Streptococcus sp.", "result": 1, "unit": "µg/mL"},
      {"measurement": "MIC Streptococcus pneumoniae (GC 1894)", "setting": "Streptococcus sp.", "result": 0.12, "unit": "µg/mL"},
      {"measurement": "MIC Streptococcus pneumoniae (GC 4565)", "setting": "Streptococcus sp.", "result": 1, "unit": "µg/mL"},
      {"measurement": "MIC Streptococcus pyogenes (GC 4563)", "setting": "Streptococcus sp.", "result": 0.5, "unit": "µg/mL"},
      {"measurement": "MIC Streptococcus pneumoniae (ATCC 6301)", "setting": "Streptococcus sp.; strain ATCC 6301", "result": 1, "unit": "µg/mL"},
      {"measurement": "MIC Streptococcus pneumoniae (GC 1894)", "setting": "Streptococcus sp.; strain GC 1894", "result": 0.12, "unit": "µg/mL"},
      {"measurement": "MIC Streptococcus pyogenes (GC 4563)", "setting": "Streptococcus sp.; strain GC 4563", "result": 0.5, "unit": "µg/mL"},
      {"measurement": "MIC Streptococcus agalactiae (GC 4564)", "setting": "Streptococcus sp.; strain GC 4564", "result": 1, "unit": "µg/mL"},
      {"measurement": "MIC Streptococcus pneumoniae (GC 4565)", "setting": "Streptococcus sp.; strain GC 4565", "result": 1, "unit": "µg/mL"},
      {"measurement": "MIC Escherichia coli (ATCC 25922)", "setting": "Escherichia coli", "result": ">64", "unit": "µg/mL"},
      {"measurement": "MIC Escherichia coli (GC 4559)", "setting": "Escherichia coli", "result": 64, "unit": "µg/mL"},
      {"measurement": "MIC Escherichia coli (GC 4560)", "setting": "Escherichia coli", "result": 4, "unit": "µg/mL"}
    ]}
  ]
}
